The subject of assay [1] is serum/glucocorticoid inducible protein kinase (sgk) mRNA. As to the kind of experiment: Northern analysis of sgk mRNA. In kind it is cell-based, human. To be noted: 24 hours. As to the method: The cells were harvested, and total RNA was extracted with TRIzol® Reagent according to the methods of the manufacturer. Total RNA (20 μg) was fractionated on 1% agarose gels containing formaldehyde and transferred to DURLON-UV nylon membranes (Stratagene). Following UV cross-linking, the filters were hybridized with a [α^32 P]probe for human PP5. The human PP5 cDNA probe was generated from the full length coding region of PP5 and [α^32 P]-dATP was labeled with DECAprime® DNA Labeling Kit according to the manufacturer's protocol. […] Quantification of hybridization signals was achieved by analysis of the scanned autoradiograms using the NIH Image program (ImagePC).
The antiproliferative effect of dexamethasone correlates with the presence of wild type p53 and the expression of p21^Waf1/Cip1 mRNA. Referring to FIGS. 1A-1C, the effect of dexamethasone on cell proliferation in p53-defective T-24 human bladder carcinoma, p53-null TR9 human fibroblasts (Webster et al. 1993; Maiyar et al. 1996), and p53 wild-type A549 human lung carcinoma cells was determined by treating cells in log-phase growth with a single dose of 100 nM dexamethasone and counting the number of cells in treated (.cndot.) and untreated (.box-solid.) cultures for six consecutive days following treatment. […] After 24 hours total mRNA was prepared and analyzed for p21 and sgk mRNA levels by Northern analysis. […]

Another assay relates to p53 phosphorylation. Description: Immunoprecipitation of [32P]-labelled p53 from A549 cells. In kind it is cell-based, human. To be noted: six hours, 100 nM dexamethasone or 300 nM ISIS 15534. As to the method:
Immunoprecipitation of p53 protein. A549 cells were cultured in 60 mm dishes until the cell cultures were about 80% confluent, washed with PBS and placed for 1 hour in phosphate-free DMEM containing 5% fetal bovine serum. The cell cultures were then treated with 100 nM dexamethasone or 300 nM ISIS 15521 or ISIS 15534 as described previously (Zuo et al. 1998), three dishes per group, and [^32 P] phosphate (0.2 mCi/ml) was added to the media. Six hours after treatment, the cells were collected, washed with ice-cold PBS and stored at -80° C. prior to analysis. […]
Referring to FIGS. 2A-2C, Northern blot analysis of 549 cells following treatment with dexamethasone and/or ISIS 15534 is shown. […] After 24 hours, 20 μg of total RNA was prepared and analyzed for serine/threonine protein phosphatase 5 (PP5), p21^Waf1/Cip1 (p21), and serum/glucocorticoid inducible kinase (sgk) mRNA levels. […] Six hours later, the protein extracts were prepared, and changes in p53 phosphorylation were determined by immunoprecipitation, SDS-PAGE analysis, and visualized by autoradiography (Control, p53 from control cells; ISIS 15534, p53 from cells treated with 500 nM ISIS 15534; Dex, p53 from cells treated with 100 nM dexamethasone).Referring to FIG. 2E, a Western analysis of an Immobilon membrane produced by the transfer of protein from the SDS-PAGE gel and detected with an anti-p53 mouse monoclonal antibody is shown.

As to `C[C@@H]1C[C@H]2[C@@H]3CCC4=CC(=O)C=C[C@]4(C)[C@@]3(F)[C@@H](O)C[C@]2(C)[C@@]1(O)C(=O)CO` [dexamethasone, reference compound], the Expression of sgk entry in assay [1] (A549 cells, dexamethasone 0-100 nM) was “dose-dependent increase”; in assay [1] (all three cell lines (A549, T-24, TR9), 100 nM), “induced the expression”. The “Phosphorylation of p53” value in the assay with p53 phosphorylation is “hyperphosphorylation of p53”.

For the origin of these results see patent US6235891A, “Glucocorticoid receptor agonist and decreased PP5” (South Alabama Medical Science Foundation, priority 1999, dated 2001).
